Laboratory results published in US9821035B2, “Preparation for preventing or treating type I diabetes” (REGIMMUNE CORPORATION, priority 2012, dated 2017).

What was measured:
Format in all cases: cell-based
[1] = tested on: CD4(+) Foxp3(+) cells (Treg cells); test: Insulin-B-peptide-specific proliferation of Treg cells, CFSE/FACS on spleen cells from drug-administered NOD mice (Example 3); details: FIG. 3B
Description: (§1) 1-5. Analysis of Insulin-B-Peptide-Specific Cell Proliferation of Treg Cells and Measurement of Cytokine Production To NOD mice (NOD/ShiJcl, CLEA Japan Inc., Tokyo, Japan), which are animals representing a spontaneous model for type I diabetes, was intraperitoneally administered 100 μl of the sample for administration, twice a week between the age of 5 to 10 weeks, which was a period prior to the onset of type I diabetes. The spleen was removed from 13-week-old mice and then spleen cells were prepared and subjected to cell culture. Groups receiving test drugs were the following five groups: 1) a group receiving no drug (i.e., a group receiving physiological saline), 2) a group receiving the insulin-B-peptide-incorporated α-GalCer-liposome, 3) a group receiving the insulin-B-peptide-incorporated liposome, 4) a group receiving the α-GalCer-liposome, and 5) a group receiving the α-GalCer solution, with N=2 to 3 animals per group. After preparation of spleen cells from the animals of each of the groups, spleen cells were loaded with CFSE (carboxyfluorescein diacetate succinimidyl ester), a dye used in cell proliferation assays, and subjected to reaction, followed by washing the cells to remove the dye, in regular procedures. […] The concentrations of IL-2 and IL-10 in the culture supernatant were also measured.

IL-2 = test: Cytokine production in culture supernatant of spleen cells from drug-administered NOD mice: IL-2; details: spleen cells of dosed NOD mice, cultured four days
Description: as §1

IL-10 = test: Cytokine production in culture supernatant of spleen cells from drug-administered NOD mice: IL-10; details: spleen cells of dosed NOD mice, cultured four days
Description: as §1

Structure (SMILES): CCCCCCCCCCCCCCCCCCCCCCCCCC(=O)N[C@@H](CO[C@H]1O[C@H](CO)[C@H](O)[C@H](O)[C@H]1O)[C@H](O)[C@H](O)CCCCCCCCCCCCCC [α-GalCer solution, (2S,3S,4R)-1-O-(α-D-galactopyranosyl)-2-hexacosanoylamino-1,3,4-octadecanetriol]
- ratio of the percentage of proliferated cells when no antigen was added to the percentage when the insulin B peptide was added [1]: 1.04
- Concentration of IL-2 in culture supernatant (IL-2): 0.9 pg/mL
- Concentration of IL-10 in culture supernatant (IL-10): 1.3 pg/mL
